≈ marks a conversion by molar mass, not a printed value.
Experiments:
[1] = Unbound Cmax in Swiss mouse at 10 mg/kg, po by LC-MS analysis; type: ADME, organism-based; conditions: in vivo
[2] = Intrinsic clearance in mouse liver microsomes at 1 uM by LC-MS analysis; type: ADME, Microsome
Plasmodium falciparum [3] = experiment: Antiplasmodial activity against Plasmodium falciparum 3D7 infected in RBC assessed as reduction in parasitemia incubated for 72 hrs by SYBR green dye-based assay; type: functional, organism-based
[4] = Protein binding in mouse plasma assessed as bound fraction by LC-MS analysis based ultracentrifugation assay; type: ADME, cell-free; conditions: read-out: PPB (converted)
[5] = Protein binding in Swiss mouse plasma at 10 mg/kg, po administered as single dose via gavage measured over 24 hrs by LC-MS analysis; type: ADME, organism-based; conditions: read-out: PPB (converted)
Plasmodium falciparum [6] = experiment: Antiplasmodial activity against Plasmodium falciparum 3D7 infected in po dosed NSG mouse assessed as reduction in parasitemia administered twice daily for 4 consecutive days starting from day 3 post-infection and measured 24 hrs post last dose by flow cytometric analysis; type: functional; conditions: 3D7, po, 96 h, time 4 day
[7] = Protein binding in Sprague-Dawley rat plasma at […], iv administered as infusion for 10 mins by LC-MS analysis; type: ADME, organism-based; conditions: read-out: PPB (converted)
[8] = Unbound Clearance in Sprague-Dawley rat at […], iv by LC-MS analysis; type: ADME, organism-based; conditions: in vivo, dose 2.6 mg/kg
[9] = Intrinsic clearance in human pooled liver microsomes assessed per mg protein at 1 uM by LC-MS analysis; type: ADME, Microsome; conditions: for microsomal intrinsic clearance: microsomes, 1 µM
[10] = Unbound volume of distribution at steady state in Sprague-Dawley rat at […], iv by LC-MS analysis; type: ADME, organism-based; conditions: in vivo, dose 2.6 mg/kg
[11] = Unbound AUC (0 to infinity) in Sprague-Dawley rat at 18.8 mg/kg, po by LC-MS analysis; type: ADME, organism-based; conditions: in vivo
Plasmodium falciparum [12] = experiment: Antiplasmodial activity against Plasmodium falciparum 3D7 infected in po dosed NSG mouse assessed as blood AUC level require to show 90% reduction in parasitemia administered once daily for 4 consecutive days starting from day 3 post-infection and measured 24 hrs post last dose by flow cytometric analysis; type: functional, organism-based; conditions: time 4.0 day
[13] = Unbound AUC (0 to infinity) in Swiss mouse at 10 mg/kg, po by LC-MS analysis; type: ADME, organism-based; conditions: in vivo
[14] = Protein binding in rat plasma assessed as bound fraction by LC-MS analysis based ultracentrifugation assay; type: ADME, cell-free; conditions: read-out: PPB (converted)
[15] = Unbound AUC (0 to infinity) in Sprague-Dawley rat at […], iv by LC-MS analysis; type: ADME, organism-based; conditions: in vivo
[16] = AUC (0 to infinity) in Sprague-Dawley rat at […], iv by LC-MS analysis; type: ADME, organism-based; set-up: time infinity, route intravenous, dose 2.6 mg/kg; conditions: in vivo
[17] = Unbound Cmax in Sprague-Dawley rat at 18.8 mg/kg, po by LC-MS analysis; type: ADME, organism-based; conditions: in vivo
[18] = Intrinsic clearance in rat liver microsomes assessed per mg protein at 1 uM by LC-MS analysis; type: ADME, Microsome; conditions: for Intrinsic clearance in rat liver microsomes (uL/min/mg protein): 1 µM
[19] = Solubility of compound in 0.1 N HCl measured after 5 to 6 hrs by HPLC-UV based analysis; type: physicochemical; conditions: buffer; time 5-6 hrs
[20] = Apparent half-life in Swiss mouse at 20 mg/kg, po administered as single dose via gavage measured over 24 hrs by LC-MS analysis; type: ADME, organism-based; conditions: in vivo
[21] = Oral bioavailability in Sprague-Dawley rat at 18.3 mg/kg measured over 24 hrs by LC-MS analysis; type: ADME, organism-based; conditions: in vivo
[22] = Unbound AUC (0 to infinity) in Sprague-Dawley rat at 18.3 mg/kg, po measured over 24 hrs by LC-MS analysis; type: ADME, organism-based; conditions: in vivo
[23] = Inhibition of N-terminal His6-tagged dog DHODH expressed in Escherichia coli BL21 using L-DHO as substrate and CoQ as co-substrate by DCIP dye based spectrophotometric assay; set-up: species or system Canis lupus familiaris
[24] = Protein binding in Swiss mouse plasma at 20 mg/kg, po administered as single dose via gavage measured over 24 hrs by LC-MS analysis; type: ADME, organism-based; conditions: read-out: PPB (converted)
[25] = Solubility of compound in FeSSIF at pH 5 measured after 5 to 6 hrs by HPLC-UV based analysis; type: physicochemical; conditions: simulated gi fluid, time 5-6 hrs
[26] = Apparent half-life in Sprague-Dawley rat at […], iv administered as infusion for 10 mins by LC-MS analysis; type: ADME, organism-based; conditions: in vivo, dose 1.1 mg/kg, read-out: t1/2(app) (converted)
[27] = Lipophilicity, logD of the compound at pH 7.4; type: physicochemical; conditions: buffer
[28] = Tmax in Swiss mouse at 20 mg/kg, po administered as single dose via gavage measured over 24 hrs by LC-MS analysis; type: ADME, organism-based; conditions: in vivo
[29] = Kinetic solubility of compound in phosphate buffer at pH 6.5 measured after 30 mins by HPLC-UV based analysis; type: physicochemical; conditions: phosphate buffer, pH 6.5, read-out: Kinetic_solubility
[30] = Volume of distribution at steady state in Sprague-Dawley rat at […], iv administered as infusion for 10 mins by LC-MS analysis; type: ADME, organism-based; conditions: in vivo, dose 1.1 mg/kg
[31] = AUC (0 to infinity) in Sprague-Dawley rat at […], iv administered as infusion for 10 mins by LC-MS analysis; type: ADME, organism-based; set-up: route intravenous, dose 1.1 mg/kg, time 10 min; conditions: in vivo
in vivo = conditions: Sprague-Dawley, rat, po, 18.3 mg/kg
[32] = AUC (0 to infinity) in Swiss mouse at 20 mg/kg, po administered as single dose via gavage measured over 24 hrs by LC-MS analysis; type: ADME, organism-based; set-up: route oral, dose 20 mg/kg, time >24; conditions: in vivo
[33] = Elimination half-life in Swiss mouse at 20 mg/kg, po administered as single dose via gavage measured over 24 hrs by LC-MS analysis; type: ADME, organism-based; conditions: in vivo, read-out: beta t1/2 (converted)
[34] = Protein binding in human plasma assessed as bound fraction by LC-MS analysis based ultracentrifugation assay; type: ADME, cell-free; conditions: read-out: PPB (converted)
[35] = Unbound volume of distribution at steady state in Sprague-Dawley rat at […], iv administered as infusion for 10 mins by LC-MS analysis; type: ADME, organism-based; conditions: in vivo, dose 1.1 mg/kg
[36] = Unbound AUC (0 to infinity) in Swiss mouse at 20 mg/kg, po administered as single dose via gavage measured over 24 hrs by LC-MS analysis; type: ADME, organism-based; conditions: in vivo
[37] = Inhibition of N-terminal His6-tagged Plasmodium falciparum DHODH expressed in Escherichia coli BL21 using L-DHO as substrate and CoQ as co-substrate by DCIP dye based spectrophotometric assay
[38] = Unbound Cmax in Sprague-Dawley rat at 18.3 mg/kg, po measured over 24 hrs by LC-MS analysis; type: ADME, organism-based; conditions: in vivo
[39] = Cmax in Sprague-Dawley rat at 18.3 mg/kg, po measured over 24 hrs by LC-MS analysis; type: ADME, organism-based; set-up: route oral, dose 18.3 mg/kg, time >24; conditions: in vivo
[40] = Unbound clearance in Sprague-Dawley rat at […], iv administered as infusion for 10 mins by LC-MS analysis; type: ADME, organism-based; conditions: in vivo, dose 1.1 mg/kg
[41] = Inhibition of yeast DHODH expressed in Plasmodium falciparum; set-up: species or system Saccharomyces cerevisiae
[42] = Cmax in Swiss mouse at 20 mg/kg, po administered as single dose via gavage measured over 24 hrs by LC-MS analysis; type: ADME, organism-based; set-up: route oral, dose 20 mg/kg, time >24; conditions: in vivo
[43] = Unbound Cmax in Swiss mouse at 20 mg/kg, po administered as single dose via gavage measured over 24 hrs by LC-MS analysis; type: ADME, organism-based; conditions: in vivo
[44] = AUC (0 to infinity) in Sprague-Dawley rat at 18.3 mg/kg, po measured over 24 hrs by LC-MS analysis; type: ADME, organism-based; set-up: route oral, dose 18.3 mg/kg, time >24; conditions: in vivo
[45] = Solubility of compound in FaSSIF at pH 6.5 measured after 5 to 6 hrs by HPLC-UV based analysis
[46] = Inhibition of N-terminal His6-tagged Plasmodium vivax DHODH expressed in Escherichia coli BL21 using L-DHO as substrate and CoQ as co-substrate by DCIP dye based spectrophotometric assay
Plasmodium falciparum [47] = experiment: Antiplasmodial activity against Plasmodium falciparum 3D7 infected in NSG mouse assessed as blood AUC level require to show 90% reduction in parasitemia administered orally on day 3 post-infection QD for 4 days and measured after 24 hrs post dose by LC-MS/MS analysis; type: functional, organism-based; conditions: time 4.0 day
[48] = target: Dihydroorotate dehydrogenase (quinone), mitochondrial (Homo sapiens, UniProt Q02127); experiment: Inhibition of N-terminal His6-tagged human DHODH expressed in Escherichia coli BL21 using L-DHO as substrate and CoQ as co-substrate by DCIP dye based spectrophotometric assay
[49] = Plasmodium falciparum, 3D7, Erythrocyte, 72 h

Chain of Dihydroorotate dehydrogenase (quinone), mitochondrial (Q02127 whole entry): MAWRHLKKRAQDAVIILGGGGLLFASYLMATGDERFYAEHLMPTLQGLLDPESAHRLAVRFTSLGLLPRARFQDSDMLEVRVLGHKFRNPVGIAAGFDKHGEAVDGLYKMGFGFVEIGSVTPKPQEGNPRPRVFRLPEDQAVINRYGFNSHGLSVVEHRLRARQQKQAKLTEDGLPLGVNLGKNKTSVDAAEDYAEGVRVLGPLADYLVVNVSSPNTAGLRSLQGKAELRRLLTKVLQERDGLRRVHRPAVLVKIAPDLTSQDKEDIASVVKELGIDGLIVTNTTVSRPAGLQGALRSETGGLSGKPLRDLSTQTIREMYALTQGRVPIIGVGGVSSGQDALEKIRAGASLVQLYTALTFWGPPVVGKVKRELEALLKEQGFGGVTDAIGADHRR

Structure (SMILES): Cc1cc(Nc2ccc(S(F)(F)(F)(F)F)cc2)n2nc(C(C)(F)F)nc2n1 [DSM-265]
- fCmax [1]: 0.01 µM
- intrinsic clearance [2]: 2.8 µL/min
- EC50 (Plasmodium falciparum [3]; [49]): 4.3 nM
- fraction unbound [4]: 0.003
- fraction unbound at 24 h [5]: 0.003
- ED90 (Plasmodium falciparum [6]): 3 mg/kg
- fraction unbound at 10 min ([7]; dose 2.6 mg/kg): 0.023
- CL free [8]: 263 mL/min/kg
- microsomal CLint at 1 µM ([9]; pooled human liver microsomes): 4.3 µL/min/mg
- fVdss [10]: 257 L/kg
- fAUC [11]: 2.8 µM·h
- AUCED90 (Plasmodium falciparum [12]): 30.8 µM.hr/day
- fAUC [13]: 0.07 µM·h
- fraction unbound [14]: 0.023
- fAUC ([15]; dose 2.6 mg/kg): 0.4 µM·h
- AUC(0-inf) [16]: 17.4 µM·h
- fCmax [17]: 0.09 µM
- microsomal CLint at 1 µM ([18]; rat liver microsomes, read-out: CLH): 1.8 µL/min/mg
- solubility [19]: 6.8 µg/mL (≈ 16.4 µM)

Structure (SMILES): Cc1cc(NC2CCc3ccc(Br)cc3C2)n2nc(C(C)(F)F)nc2n1 (stereo in doubt)
- t1/2(app) [20]: 2.1 h
- bioavailability [21]: 86%
- fAUC [22]: 0.79 µM·h
- IC50 [23]: > 100000 nM
- fraction unbound at 24 h [24]: 0.028
- intrinsic clearance [2]: 32 µL/min
- EC50 (Plasmodium falciparum [3]; rbc): 0.39 nM
- solubility [25]: 39 µg/mL (≈ 92.4 µM)
- half-life at 10 min [26]: 6.1 h
- logD [27]: 4
- Tmax [28]: 1 h
- solubility kinetic at 0.5 h [29]: 1.6 µg/mL (≈ 3.79 µM)
- Vdss [30]: 8.7 L/kg
- AUC(0-inf) at 10 min [31]: 2 µM·h
- fraction unbound at 10 min ([7]; dose 1.1 mg/kg): 0.028
- Tmax at 24 h (in vivo): 3.3 h
- AUC [32]: 16.7 µM·h
- half-life [33]: 2 h
- fraction unbound [34]: 0.037
- fVdss [35]: 311 L/kg
- fAUC [36]: 0.47 µM·h
- IC50 [37]: 4.6 nM
- fCmax [38]: 0.07 µM
- Cmax [39]: 2.7 µM
- CL free [40]: 800 mL/min/kg
- EC50 [41]: 7400 nM
- fraction unbound [14]: 0.028
- fAUC ([15]; dose 1.1 mg/kg): 0.05 µM·h
- Cmax [42]: 4.5 µM
- fCmax [43]: 0.13 µM
- Intrinsic clearance in rat liver microsomes (uL/min/mg protein) [18]: 39 µL/min
- AUC(0-inf) [44]: 28.1 µM·h
- solubility [45]: 8.3 µg/mL (≈ 19.7 µM)
- solubility [19]: 52 µg/mL (≈ 123 µM)
- IC50 [46]: 12 nM

Structure (SMILES): CCN(CC)CCCC(C)Nc1ccnc2cc(Cl)ccc12 (stereo not given) [CHLOROQUINE]
- ED90 (Plasmodium falciparum [6]): 4.3 mg/kg
- AUCED90 (Plasmodium falciparum [12]): 3.1 µM.hr/day

Structure (SMILES): Cc1cc(NC2CCc3cc(Cl)ccc3C2)n2nc(C(C)(F)F)nc2n1 (stereo in doubt)
- AUCED90 (Plasmodium falciparum [47]): > 23 µM.hr/day

Structure (SMILES): Cc1cc(NC2Cc3c(C)ccc(C)c3C2)n2nc(C(C)(F)F)nc2n1
- intrinsic clearance [2]: 1000 µL/min
- EC50 (Plasmodium falciparum [3]; [49]): 0.39 nM
- logD [27]: 3.8
- solubility kinetic at 0.5 h [29]: 6.3 µg/mL (≈ 17.6 µM)
- microsomal intrinsic clearance [9]: 168 µL/min
- IC50 [37]: 14 nM
- IC50 [48]: > 100000 nM
- Intrinsic clearance in rat liver microsomes (uL/min/mg protein) [18]: 178 µL/min
- IC50 [46]: 24 nM

Structure (SMILES): Cc1cc(NC2Cc3cccc(C(F)(F)F)c3C2)n2nc(C(C)(F)F)nc2n1 (stereo not given)
- intrinsic clearance [2]: 119 µL/min
- EC50 (Plasmodium falciparum [3]; [49]): 4.3 nM
- logD [27]: 3.7
- solubility kinetic at 0.5 h [29]: 6.3 µg/mL (≈ 15.9 µM)
- microsomal intrinsic clearance [9]: 30 µL/min
- IC50 [37]: 66 nM
- IC50 [48]: > 100000 nM
- Intrinsic clearance in rat liver microsomes (uL/min/mg protein) [18]: 61 µL/min
- IC50 [46]: 280 nM
